# According to patent US8853194B2, “Sterol derivatives and their synthesis and use” (priority 2009, dated 2014):
# Several values for one entry are separate records, joined by “and”; a condition that tells them apart may be missing. Identical values can stand only once. Like-named read-outs stand apart in the source and are kept apart here. Marks after values point to notes of the source that are not given here.
# Experiments:
# [1] = tested on: VEGF; conditions: tumor tissue, ratio to β-actin, n=3
# Description: (§1) 3. Detecting the activity of tumor cells VEGF, P53, P21, Bcl-2 (taking β-Actin as an internal reference)
# (§2) Using Protein Electrophoresis (Western Blot) Method
# (§3) A bean sized tumor tissue dissected previously was shredded and put into a pre-cooled tissue grinder. 400 μl tissue lysis solution was added. After 10 minutes carefully grinding, the mixture was transferred into a 1.5 ml centrifugal tube, and then, after intensely vortexing the tube for 15 seconds, the mixture was placed on ice for 10 minutes and repeatedly oscillated. After centrifuging 20 minutes (12000 rpm), the supernatant was collected, transferred into a pre-cooled Eppendorf tube, and then separately charged and frozen stored at −80° C. for detecting the activity level of various antibodies.
# (§4) 3.4.3 Reaction with the first antibody: The first antibody was diluted by TBST solution at a ratio of 1:200, and then reacted with the PVDF film at 4° C. for a night. In the next day, after balanced at room temperature for one hour, the reaction mixture was washed with TBST for 3 times.
# [2] = tested on: P21; conditions: tumor tissue, ratio to β-actin, n=3
# Description: as §1, §2, §3, §4
# [3] = tested on: P53; conditions: tumor tissue, ratio to β-actin, n=3
# Description: as §1, §2, §3, §4
# [4] = tested on: Caspase 8; conditions: 2.0 μg, HepG2 cells
# Description: (§5) 2.1.1 HepG2 cells were digested by trypsin in the cell culture medium. The resulting mixture (6000 was centrifuged for 5 minutes at 4° C. to collect the cells. The supernatant was carefully aspirated and discarded. The remains were washed once with PBS, added to lysate (100 μl/2×10^6 cells); and then, after resuspending the precipitation, ice cracked for 15 minutes.
# (§6) 2.1.2 The resulting mixture (16000 g) was centrifuged at 4° C. for 15 minutes.
# (§7) 2.1.3 The supernatant was transferred into a centrifugal tube that was pre-cooled by ice bath.
# (§8) 2.2.3 Incubating at 37° C. for 120 minutes, detecting Caspase 3 with A405;
# (§9) 2.2.4 Adding Ac-IETD-PNA (2 mM) and Ac-LEHD-PNA (2 mM), respectively, for detecting Caspase 8, 9
# [5] = tested on: Caspase 9; conditions: 2.0 μg, HepG2 cells
# Description: as §5, §6, §7, §8, §9
# [6] = tested on: Caspase 3; conditions: 2.0 μg, HepG2 cells, A405
# Description: as §5, §6, §7
# 2.2.1 Took out pNA and a suitable amount of Ac-DEVD-PNA (2 mM), put them on the ice bath for later use;
# as §8
# [7] = tested on: ICR mice; test: Intraperitoneal injection LD50 for mouse (KORBER's method); assay type: in vivo; conditions: for Animal deaths: 10 mice, in 7 days
# Description: I. Experiment Item: Intraperitoneal injection LD50 for mouse (KORBER's method)
# ICR mice (SPF grade), with a weight range of 18-22 g, provided by Vital River Laboratories (VRL) in Beijing, China, were used. There were 5 treatment groups in total, wherein 2000 mg/kg was the highest dose, and the others decreased to 0.8 times, i.e. 1600 mg/kg, 1280 mg/kg, 1024 mg/kg and 819.2 mg/kg. The mice were randomly divided into groups. Each group had 10 mice with half male and half female. Each mouse was introperitoneal injected (0.2 ml/10 g. Observed 3-7 days, a variety of animal responses and the amount of dead mice in each group were recorded. LD50 and confidence limits were calculated by the modified Karber method(Korbor) according to the mortality rate of animals in each group.
# [8] = tested on: human immortalized fibroblast cell NIH3T3
# Description: (§10) The human hepatoma cells HepG2, human lung cancer cells A549 and NIH3T3 cells were recovered, and subcultured in culture flasks. Once the cells grew to the logarithmic phase, the experiment can be started. The cells were digested by high-pressure filtered trypsin to prepare a cell-containing suspension, dyed for 3 minutes with 0.4% trypan blue, and then counted with the blood-cell counter (living cells were not colored, while dead cells were stained blue).
# (§11) The three types of cells in logarithmic phase were seeded in 96-well plates with a density of 1×10^4/ml (200 μL/well), and then cultivated for 24 hours at 37° C. in 5% CO2 cultivable box. The culture media was aspirated and discarded. […] After cultivating for 24 hours and 48 hours, 100 ul supernatant was carefully aspirated and discarded, respectively. MTS (20 μl/well) was added and mixed evenly. The mixture was cultivated for 1 hour at 37° C. in 5% CO2 cultivable box. The absorbency at 492 nm was determined by quantitative Enzyme-linked immunosorbent assay (ELISA). The experiment was repeated for three times. The growth inhibition rate was calculated as follows. Growth Inhibition rate(%)=[(mean OD value of control group−mean OD value of treatment group)/mean OD value of control group]×100%
# [9] = tested on: human lung cancer cell A549
# Description: as §10, §11
# [10] = tested on: human hepatoma cell HepG2
# Description: as §10, §11
# [11] = mice, intraperitoneal injection, modified Karber method
smiles,measurement,setting,value
"CC(C)CCC[C@@H](C)[C@H]1CC[C@@H]2[C@]1(C)CC[C@H]1[C@]23C=C[C@]2(CC(=O)CC[C@]12C)OO3 [CL168-6, 5α,8α-cyclicobioxygen-6-cholesten-3-one]",relative expression level of VEGF,[1],0.46±0.08
same,relative expression level of P21,[2],0.79±0.07
same,relative expression level of P53,[3],0.74±0.03
same,OD value of Caspase8,[4]; 24 h,0.413
same,OD value of Caspase8,[4]; 48 h,0.408
same,OD value of Caspase9,[5]; 24 h,0.156
same,OD value of Caspase9,[5]; 48 h,0.146
same,OD value of Caspase3,[6]; 24 h,0.190
same,OD value of Caspase3,[6]; 48 h,0.185
same,Animal deaths,[7]; 819.2 mg/kg i.p.,0
same,Animal deaths,[7]; 1024 mg/kg i.p.,1
same,Animal deaths,[7]; 1280 mg/kg i.p.,3
same,Animal deaths,[7]; 1600 mg/kg i.p.,6
same,Animal deaths,[7]; 2000 mg/kg i.p.,8
same,Death in the 12 hours after administration,"[7]; 819.2-2000 mg/kg i.p., first 12 hours",no death appeared
same,LD50,[7]; [11],1479.11 mg/kg and 1479 mg/kg
same,LD50 95% confidence interval,[7]; [11],1304.19 to 1677.49 mg/kg
same,24 h Inhibition rate (%) NIH3T3,[8]; 2.5 μg/ml,3.87%
same,48 h Inhibition rate (%) NIH3T3,[8]; 2.5 μg/ml,0.75%
same,24 h Inhibition rate (%) NIH3T3,[8]; 5.0 μg/ml,5.69%
same,48 h Inhibition rate (%) NIH3T3,[8]; 5.0 μg/ml,1.97%
same,24 h Inhibition rate (%) NIH3T3,[8]; 10.0 μg/ml,8.45%
same,48 h Inhibition rate (%) NIH3T3,[8]; 10.0 μg/ml,5.37%
same,24 h Inhibition rate (%) A549,[9]; 2.5 μg/ml,48.69%
same,48 h Inhibition rate (%) A549,[9]; 2.5 μg/ml,51.91%
same,24 h Inhibition rate (%) A549,[9]; 5.0 μg/ml,55.78* %
same,48 h Inhibition rate (%) A549,[9]; 5.0 μg/ml,59.75* %
same,24 h Inhibition rate (%) A549,[9]; 10.0 μg/ml,62.40%
same,48 h Inhibition rate (%) A549,[9]; 10.0 μg/ml,69.67% and 69.37* %
same,24 h Inhibition rate (%) HepG2,[10]; 2.5 μg/ml,52.85%
same,48 h Inhibition rate (%) HepG2,[10]; 2.5 μg/ml,59.83%
same,24 h Inhibition rate (%) HepG2,[10]; 5.0 μg/ml,58.51* %
same,48 h Inhibition rate (%) HepG2,[10]; 5.0 μg/ml,69.08* %
same,24 h Inhibition rate (%) HepG2,[10]; 10.0 μg/ml,64.39%
same,48 h Inhibition rate (%) HepG2,[10]; 10.0 μg/ml,73.67%
